Publication PMC10786919, “Design-rules for stapled peptides with in vivo activity and their application to Mdm2/X antagonists” (Nature Communications, 2024)
Values after ≈ are worked out from the molar mass of the structure shown. Like-named read-outs stand apart in the source and are kept apart here. Positions of bridges follow the written chain, without caps; N, C: chain ends. Non-standard residues stand in square brackets, D forms with d. Residues, ends and D or L forms follow the SMILES beside them. Phe(3,4-Cl2) = N[C@@H](Cc1ccc(Cl)c(Cl)c1)C(=O)O; Lys(N3) = [N-]=[N+]=NCCCC[C@H](N)C(=O)O; R8 = C=CCCCCCC[C@@](C)(N)C(=O)O; Cba = N[C@@H](CC1CCC1)C(=O)O; S5 = C=CCCC[C@](C)(N)C(=O)O; Aib = CC(C)(N)C(=O)O; βAla = NCCC(=O)O; Sar = CNCC(=O)O

Tests used:
[1] = Lactate dehydrogenase (LDH) release assay; format: cell-based
Method in brief: (§1)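 HCT116 cells stably carrying a p53-responsive β-lactamase reporter, seeded at 8000 cells/well, exposed to compound with 0.5% final DMSO. LDH release read with the CytoTox-ONE membrane integrity kit. Values are geometric means of at least three biological replicates.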

[2] = system: HCT116 cells; assay: Lactate dehydrogenase (LDH) release assay; format: cell-based
Method in brief: as §1

[3] = Solubility assay (kinetic solubility, PBS pH 7); format: physicochemical; conditions: pH 7, PBS; for solubility kinetic: pH 7, aqueous buffer, kinetic from dmso stock, read-out: Solubility
Method in brief: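 Next, measure peak areas of sample and standard. Finally, multiply their ratio by the standard concentration to obtain solubility (µM).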

[4] = in vitro
Method in brief: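 Azido-peptide permeability was read as loss of NanoBRET signal (donor 450 nm, acceptor 610 nm) after adding NanoBret618-azide at 10 μM final.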

[5] = physchem
[6] = Experimental LogD (partition coefficient); conditions: for logD: Partition Coeff LogD
[7] = Nanoclick permeability assay EC50

## CC(=O)N[C@@H](CCCCN=[N+]=[N-])C(=O)N[C@@H](CO)C(=O)NCC(=O)N[C@@H](CO)C(=O)N[C@@H](CC(C)C)C(=O)N[C@H](C(=O)N[C@@H](Cc1ccccc1)C(=O)N[C@]1(C)CCCCCCC=CCCC[C@@](C)(C(=O)N[C@@H](CO)C(=O)N[C@@H](C)C(=O)N[C@@H](C)C(N)=O)NC(=O)[C@H](CC2CCC2)NC(=O)[C@H](CCC(N)=O)NC(=O)[C@H](C)NC(=O)[C@H](Cc2c[nH]c3ccccc23)NC(=O)[C@H](Cc2ccc(O)cc2)NC(=O)[C@H](CCC(=O)O)NC1=O)[C@@H](C)O [MP-619]
[1]; LDH: Cytotoxicity assay: EC50
  EC50: > 50.6 µM
[2]
  LDH: Cytotoxicity assay: % Effect: 11.42%
[3]
  solubility kinetic: 110 µM (≈ 235 µg/mL)
[4]; [7]
  cell entry EC50: 0.63 µM
[5]
  EPSA: 227 A^2
[6]; not stated
  logD: 2.67

## CC(=O)N[C@@H](CCCCN=[N+]=[N-])C(=O)NCCC(=O)N[C@@H](C)C(=O)N[C@H](C(=O)N[C@@H](Cc1ccccc1)C(=O)N[C@]1(C)CCCCCCC=CCCC[C@@](C)(C(=O)N[C@@H](C)C(=O)N[C@@H](C)C(=O)N[C@@H](C)C(N)=O)NC(=O)[C@H](CC2CCC2)NC(=O)[C@H](C)NC(=O)[C@H](C)NC(=O)[C@H](Cc2c[nH]c3ccccc23)NC(=O)[C@H](Cc2ccc(O)cc2)NC(=O)[C@H](C)NC1=O)[C@@H](C)O [MP-350, Azide-ATSP-7041 (L1A, E5A, Q9A, S12A)] (Ac-[Lys(N3)][βAla]ATF[R8]AYWAA[Cba][S5]AAA-NH2; staple 6-13)
[1]; 0% FBS 4Hr, read-out: LDH: Cytotoxicity assay: EC50
  EC50: > 50.7 µM
[1]; 10% FBS 4Hr, read-out: LDH: Cytotoxicity assay: EC50
  EC50: > 50 µM
[1]; 10% FBS 16Hr, read-out: LDH: Cytotoxicity assay: EC50
  EC50: > 50.7 µM
[2]; 0% FBS 4Hr
  LDH: Cytotoxicity assay: % Effect: -5.38%
[2]; 10% FBS 4Hr
  LDH: Cytotoxicity assay: % Effect: 108.5%
[2]; 10% FBS 16Hr
  LDH: Cytotoxicity assay: % Effect: -2.204%
[3]
  solubility kinetic: 2 µM (≈ 3.59 µg/mL)
[4]
  cell entry EC50: 0.695 µM
[5]
  EPSA: 196 A^2
[6]; experimental
  logD: 3.37
[6]; not stated
  logD: 3.37

## CC(C)C[C@H](NC(=O)CCNC(=O)[C@@H](N)CCCCN=[N+]=[N-])C(=O)N[C@H](C(=O)N[C@@H](Cc1ccccc1)C(=O)N[C@]1(C)CCCCCCC=CCCC[C@@](C)(C(N)=O)NC(=O)[C@H](CC2CCC2)NC(=O)[C@H](CCC(N)=O)NC(=O)[C@H](C)NC(=O)[C@H](Cc2c[nH]c3ccccc23)NC(=O)[C@H](Cc2ccc(O)cc2)NC(=O)[C@H](CCC(=O)O)NC1=O)[C@@H](C)O [MP-327] (H-[Lys(N3)][βAla]LTF[R8]EYWAQ[Cba][S5]-NH2; staple 6-13)
[1]; LDH: Cytotoxicity assay: EC50
  EC50: > 50.6 µM
[2]
  LDH: Cytotoxicity assay: % Effect: 39.84%
[4]; [7]
  cell entry EC50: > 10 µM
[5]
  EPSA: 228 A^2
[6]; not stated
  logD: 2.83

## CC(=O)N[C@@H](CCCCN=[N+]=[N-])C(=O)NCCC(=O)N[C@@H](CC(C)C)C(=O)N[C@H](C)C(=O)N[C@@H](Cc1ccccc1)C(=O)N[C@]1(C)CCCCCCC=CCCC[C@@](C)(C(=O)N[C@@H](CO)C(=O)N[C@@H](C)C(=O)N[C@@H](C)C(N)=O)NC(=O)[C@H](CC2CCC2)NC(=O)[C@H](CCC(N)=O)NC(=O)[C@H](C)NC(=O)[C@H](Cc2c[nH]c3ccccc23)NC(=O)[C@H](Cc2ccc(O)cc2)NC(=O)[C@H](CCC(=O)O)NC1=O [MP-7471] (Ac-[Lys(N3)][βAla]L[dA]F[R8]EYWAQ[Cba][S5]SAA-NH2; staple 6-13)
[1]; LDH: Cytotoxicity assay: EC50
  EC50: > 50 µM
[2]
  LDH: Cytotoxicity assay: % Effect: 0.465%
[3]
  solubility kinetic: 93.5 µM (≈ 181 µg/mL)
[4]; [7]
  cell entry EC50: > 10 µM
[5]
  EPSA: 229 A^2
[6]; not stated
  logD: 2.95

## CC(=O)N[C@@H](CCCCN=[N+]=[N-])C(=O)NCCC(=O)N[C@@H](CC(C)C)C(=O)N[C@H](C(=O)N[C@@H](Cc1ccccc1)C(=O)N[C@]1(C)CCCCCCC=CCCC[C@@](C)(C(=O)N[C@@H](CO)C(=O)NC(C)(C)C(=O)N[C@@H](C)C(N)=O)NC(=O)[C@H](CC2CCC2)NC(=O)[C@H](CCC(N)=O)NC(=O)[C@H](C)NC(=O)[C@H](Cc2c[nH]c3ccccc23)NC(=O)[C@H](Cc2ccc(O)cc2)NC(=O)[C@H](CCC(=O)O)NC1=O)[C@@H](C)O [MP-257] (Ac-[Lys(N3)][βAla]LTF[R8]EYWAQ[Cba][S5]S[Aib]A-NH2; staple 6-13)
[1]; LDH: Cytotoxicity assay: EC50
  EC50: 4.55 µM
[2]
  LDH: Cytotoxicity assay: % Effect: -4.69%
[3]
  solubility kinetic: 25 µM (≈ 49.6 µg/mL)
[4]; [7]
  cell entry EC50: 0.469 µM
[5]
  EPSA: 210 A^2
[6]; not stated
  logD: 2.97

## CC(=O)N[C@@H](CCCCN=[N+]=[N-])C(=O)NCCC(=O)N[C@@H](CC(C)C)C(=O)N[C@H](C(=O)N[C@@H](Cc1ccccc1)C(=O)N[C@]1(C)CCCCCCC=CCCC[C@@](C)(C(=O)N[C@@H](CO)C(=O)N[C@@H](C)C(=O)N[C@@H](C)C(N)=O)NC(=O)[C@H](CC2CCC2)NC(=O)[C@H](CCC(N)=O)NC(=O)[C@H](C)NC(=O)[C@H](Cc2c[nH]c3ccccc23)NC(=O)[C@@H](CCC(=O)O)NC(=O)[C@H](C)NC1=O)[C@@H](C)O [MP-036] (Ac-[Lys(N3)][βAla]LTF[R8]A[dE]WAQ[Cba][S5]SAA-NH2; staple 6-13)
[1]; LDH: Cytotoxicity assay: EC50
  EC50: > 50.6 µM
[2]
  LDH: Cytotoxicity assay: % Effect: 2.628%
[3]
  Solubility: Poorly Behaved
[4]; [7]
  cell entry EC50: 0.053 µM
[5]
  EPSA: 188 A^2
[6]
  Partition Coeff LogD: Poorly Behaved

## CC(=O)N[C@@H](CCCCN=[N+]=[N-])C(=O)NCCC(=O)N[C@@H](CC(C)C)C(=O)N[C@H](C(=O)N[C@@H](Cc1ccccc1)C(=O)N[C@]1(C)CCCCCCC=CCCC[C@@](C)(C(=O)N[C@@H](CO)C(=O)N[C@@H](C)C(=O)N[C@@H](C)C(N)=O)NC(=O)[C@H](CC2CCC2)NC(=O)[C@H](CCC(N)=O)NC(=O)[C@H](C)NC(=O)[C@H](Cc2ccc(Cl)c(Cl)c2)NC(=O)[C@H](Cc2ccc(O)cc2)NC(=O)[C@H](CCC(=O)O)NC1=O)[C@@H](C)O [MP-765] (Ac-[Lys(N3)][βAla]LTF[R8]EY[Phe(3,4-Cl2)]AQ[Cba][S5]SAA-NH2; staple 6-13)
[1]; LDH: Cytotoxicity assay: EC50
  EC50: > 50.6 µM
[2]
  LDH: Cytotoxicity assay: % Effect: 2.873%
[3]
  Solubility: Poorly Behaved
[4]; [7]
  cell entry EC50: 1.83 µM
[5]
  EPSA: 199 A^2
[6]
  Partition Coeff LogD: Poorly Behaved

## CC(=O)N[C@@H](CCCCN=[N+]=[N-])C(=O)NCCC(=O)N[C@@H](CC(C)C)C(=O)N[C@H](C(=O)N[C@@H](Cc1ccccc1)C(=O)N[C@]1(C)CCCCCCC=CCCC[C@@](C)(C(=O)N[C@@H](CO)C(=O)N[C@@H](C)C(=O)N(C)CC(N)=O)NC(=O)[C@H](CC2CCC2)NC(=O)[C@H](CCC(N)=O)NC(=O)[C@H](C)NC(=O)[C@H](Cc2c[nH]c3ccccc23)NC(=O)[C@H](Cc2ccc(O)cc2)NC(=O)[C@H](CCC(=O)O)NC1=O)[C@@H](C)O [MP-566] (Ac-[Lys(N3)][βAla]LTF[R8]EYWAQ[Cba][S5]SA[Sar]-NH2; staple 6-13)
[1]; LDH: Cytotoxicity assay: EC50
  EC50: > 50.6 µM
[3]
  solubility kinetic: 87.5 µM (≈ 172 µg/mL)
[4]; [7]
  cell entry EC50: 0.132 µM
[5]
  EPSA: 204 A^2
[6]; not stated
  logD: 2.69

## CC(=O)N[C@@H](CCCCN=[N+]=[N-])C(=O)NCCC(=O)N[C@@H](CC(C)C)C(=O)N[C@H](C(=O)N[C@@H](Cc1ccccc1)C(=O)N[C@]1(C)CCCCCCC=CCCC[C@@](C)(C(=O)N[C@@H](CO)C(=O)N[C@@H](C)C(=O)N[C@@H](C)C(N)=O)NC(=O)[C@H](CC2CCC2)NC(=O)[C@H](CCC(N)=O)NC(=O)[C@H](C)NC(=O)[C@H](Cc2c[nH]c3ccccc23)NC(=O)[C@H](Cc2ccc(O)cc2)NC(=O)CNC1=O)[C@@H](C)O [MP-210] (Ac-[Lys(N3)][βAla]LTF[R8]GYWAQ[Cba][S5]SAA-NH2; staple 6-13)
[1]; LDH: Cytotoxicity assay: EC50
  EC50: > 50.6 µM
[3]
  solubility kinetic: 2 µM (≈ 3.8 µg/mL)
[4]; [7]
  cell entry EC50: 0.279 µM
[5]
  EPSA: 198 A^2
[6]; not stated
  logD: 3.35
